Measured values taken from patent EP0978561A1, “Antisense oligonucleotides for the inhibition of VEGF expression” (Hoechst Marion Roussel Deutschland GmbH, priority 1998, dated 2000).
Where two headings read alike, the source gives them in different places.

Test system: human VEGF
Assay: VEGF protein assay: ELISA of secreted VEGF in conditioned medium of oligonucleotide-treated cells
Format: cell-based
Conditions: cells treated 5 hours with oligonucleotide and Cellfectin, secreted VEGF in supernatant, 100% = Cellfectin without oligonucleotide, read-out: IC50 for VEGF secretion
Protocol: The cells are plated in 96-well plates at 30,000 cells/well, 150 ul medium per well (medium depends on cell type). The next day, Cellfectin (Gibco-BRL) is diluted to 400 ug/ml in water (solution A). Oligonucleotides are diluted to 40X the final desired concentration in water (solution B). Equal amounts of solutions A and B are mixed, to give the desired volume of a solution that is 200 µg/ml Cellfectin and 20X oligonucleotide, and the mixture left at room temperature for 30 minutes. After 30 minutes, 19 volumes of Optimem (Gibco-BRL) is added to give a final solution that is 10 µg/ml Cellfectin and 1X oligonucleotide (solution C). Medium is removed from the cells, the wells are washed 2X with Optimem, and 150 µl solution C added to each well. The plates are then returned to the incubator (37°C, 5% CO2). After 5 hours, the Cellfectin/oligonucleotide solution is removed and replaced with 150 µl of regular growth medium. VEGF protein and mRNA assays are performed beginning 19 hours later.
Samples (from example 4) of conditioned medium are taken from the desired wells and assayed for the presence of human VEGF using the human VEGF ELISA kit from R & D systems.The assay protocol is the one provided with the kit.
The IC50s are calculated based on a value of 100% for the amount of VEGF protein or mRNA in cells treated with Cellfectin but no oligonucleotide.

In the case of “5'-p*-(2'5'-rA*rA*rA*rA)*(teg) G*C*G C*T G A*T*A G A*C*A T*C*C*A*T*G -3' (GCGCTGATAGACATCCATG; 5'-phosphate 2'5' rA4, teg linker, all-2'-O-methyl, chemistry not fully specified) [ON 54, 2'5'(rA)4-conjugate all-2'-O-methyl]”, the IC50 (listed as ON54) is reported as ~230 nM and the IC50 is reported as 230 nM.
For “5'-p*(2'5'-Co Co Co Co)(teg) G*C*G C*T G A*T*A G A*C*A T*C*C*A*T*G -3' (GCGCTGATAGACATCCATG; chemistry not fully specified) [ON 53, 2'5(Co)4-conjugate all-2'-O-methyl]”, the IC50 was 1500 nM.
